Measured values as given in PMC9516332 (Frontiers in Oncology, 2022).
Like-named read-outs stand apart in the source and are kept apart here.

Assays:
Experiment in all cases: Kinase panel profiling at 1 µmol/L (MSA or IMAP), percentage inhibition
Format in all cases: biochemical
[1] = target: panel of 255 wild-type kinases (Homo sapiens, UniProt Q9H4A3); conditions: kinase WNK1; 1 µmol/L single concentration; read-out: %-inhibition at 1 µmol/L, WNK1
[2] = target: panel of 255 wild-type kinases (Homo sapiens, UniProt Q13131); conditions: AMPKα1/β1/γ1 kinase assay; 1 µmol/L single concentration; read-out: %-inhibition AMPKα1/β1/γ1
[3] = target: panel of 255 wild-type kinases (Homo sapiens, UniProt P24941); conditions: 1 µmol/L single concentration
[4] = target: T1, panel of 255 wild-type kinases (Homo sapiens, UniProt Q8IW41); conditions: MAPKAPK5; 1 µmol/L single concentration; read-out: %-inhibition, MAPKAPK5
T1 sequence (Q8IW41 1-473): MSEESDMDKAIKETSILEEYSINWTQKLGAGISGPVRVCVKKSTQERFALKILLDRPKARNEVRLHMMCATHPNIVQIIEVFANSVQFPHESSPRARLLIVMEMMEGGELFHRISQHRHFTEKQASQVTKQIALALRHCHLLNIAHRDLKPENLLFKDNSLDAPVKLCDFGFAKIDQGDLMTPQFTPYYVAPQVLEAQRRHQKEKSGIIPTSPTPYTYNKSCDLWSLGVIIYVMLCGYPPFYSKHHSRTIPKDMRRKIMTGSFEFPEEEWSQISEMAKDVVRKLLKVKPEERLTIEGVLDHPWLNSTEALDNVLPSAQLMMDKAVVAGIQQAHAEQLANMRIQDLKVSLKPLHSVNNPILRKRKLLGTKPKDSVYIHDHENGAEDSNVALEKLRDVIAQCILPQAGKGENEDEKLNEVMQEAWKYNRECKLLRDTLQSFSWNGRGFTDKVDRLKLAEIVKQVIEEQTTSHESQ

[5] = target: panel of 255 wild-type kinases (Homo sapiens, UniProt P49760); conditions: kinase CLK2; 1 µmol/L single concentration; read-out: %-inhibition at 1 µmol/L, CLK2
[6] = target: T2, panel of 255 wild-type kinases (Homo sapiens, UniProt P54753); conditions: kinase EPHB3; 1 µmol/L single concentration; read-out: %-inhibition at 1 µmol/L, EPHB3
T2 sequence (P54753 34-998): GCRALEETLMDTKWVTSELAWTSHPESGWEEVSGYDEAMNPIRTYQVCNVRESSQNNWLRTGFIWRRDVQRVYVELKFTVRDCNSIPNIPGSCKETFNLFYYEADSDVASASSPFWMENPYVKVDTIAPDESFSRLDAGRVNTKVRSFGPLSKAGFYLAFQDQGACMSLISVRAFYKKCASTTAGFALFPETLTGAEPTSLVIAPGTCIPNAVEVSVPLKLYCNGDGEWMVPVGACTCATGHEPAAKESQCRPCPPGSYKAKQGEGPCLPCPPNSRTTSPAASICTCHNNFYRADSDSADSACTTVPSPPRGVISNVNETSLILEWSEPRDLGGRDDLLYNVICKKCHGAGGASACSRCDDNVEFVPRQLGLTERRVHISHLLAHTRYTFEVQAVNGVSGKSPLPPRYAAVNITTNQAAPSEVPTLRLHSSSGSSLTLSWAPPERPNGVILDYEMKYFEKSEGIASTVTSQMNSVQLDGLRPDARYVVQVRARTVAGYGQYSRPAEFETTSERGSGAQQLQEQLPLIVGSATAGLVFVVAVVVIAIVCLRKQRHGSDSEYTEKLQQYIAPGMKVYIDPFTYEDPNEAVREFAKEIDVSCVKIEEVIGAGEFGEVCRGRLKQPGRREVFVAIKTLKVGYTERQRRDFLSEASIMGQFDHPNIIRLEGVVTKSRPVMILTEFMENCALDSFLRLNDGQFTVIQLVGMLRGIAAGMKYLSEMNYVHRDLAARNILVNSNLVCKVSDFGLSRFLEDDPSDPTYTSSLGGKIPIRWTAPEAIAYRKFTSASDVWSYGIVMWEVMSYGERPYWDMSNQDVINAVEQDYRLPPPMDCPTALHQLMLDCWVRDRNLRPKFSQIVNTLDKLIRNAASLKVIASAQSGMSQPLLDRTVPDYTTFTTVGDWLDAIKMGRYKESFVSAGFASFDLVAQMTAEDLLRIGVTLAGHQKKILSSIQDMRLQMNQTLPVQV

[7] = target: T3, panel of 255 wild-type kinases (Homo sapiens, UniProt O15111); conditions: kinase IKKα; 1 µmol/L single concentration; read-out: %-inhibition at 1 µmol/L, IKKα
T3 sequence (O15111 1-745): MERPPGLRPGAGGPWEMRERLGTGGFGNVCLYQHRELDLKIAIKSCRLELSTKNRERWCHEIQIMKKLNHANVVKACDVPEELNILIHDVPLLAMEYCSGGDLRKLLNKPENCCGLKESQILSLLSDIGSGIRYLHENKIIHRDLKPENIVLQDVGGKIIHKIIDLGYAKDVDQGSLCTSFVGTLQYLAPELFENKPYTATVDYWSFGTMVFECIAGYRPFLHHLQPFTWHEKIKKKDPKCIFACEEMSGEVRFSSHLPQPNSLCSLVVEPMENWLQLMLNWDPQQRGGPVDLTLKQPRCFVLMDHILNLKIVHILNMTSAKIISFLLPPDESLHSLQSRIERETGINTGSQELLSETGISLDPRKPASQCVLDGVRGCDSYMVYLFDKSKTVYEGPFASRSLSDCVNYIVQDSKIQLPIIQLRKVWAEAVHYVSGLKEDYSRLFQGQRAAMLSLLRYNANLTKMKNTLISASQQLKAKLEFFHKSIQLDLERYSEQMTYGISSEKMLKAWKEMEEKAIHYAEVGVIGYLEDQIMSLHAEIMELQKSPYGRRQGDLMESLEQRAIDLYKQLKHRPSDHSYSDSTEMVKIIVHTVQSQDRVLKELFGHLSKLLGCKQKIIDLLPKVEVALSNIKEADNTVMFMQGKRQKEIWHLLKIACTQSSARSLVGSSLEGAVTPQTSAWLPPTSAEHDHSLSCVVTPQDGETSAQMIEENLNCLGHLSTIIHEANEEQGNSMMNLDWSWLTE

[8] = target: panel of 255 wild-type kinases (Homo sapiens, UniProt P17612); conditions: kinase PKACα; 1 µmol/L single concentration; read-out: %-inhibition at 1 µmol/L, PKACα
[9] = CDK2/CycA2 kinase assay, read-out: %-inhibition CDK2/CycA2
[10] = CDK2/CycE1 kinase assay, read-out: %-inhibition CDK2/CycE1

Row | SMILES | inhibition at 1 µM [1] [%] | inhibition at 1 µM [2] [%] | inhibition at 1 µM [3, 9] [%] | inhibition at 1 µM [3, 10] [%] | inhibition at 1 µM [4] [%] | inhibition at 1 µM [5] [%] | inhibition at 1 µM [6] [%] | inhibition at 1 µM [7] [%] | inhibition at 1 µM [8] [%]
1 | CO[C@]1(C(=O)N[C@@H](C)c2ccc(-n3cc(F)cn3)nc2)CC[C@H](c2nc(C)cc(Nc3cc(C)[nH]n3)n2)CC1 [pralsetinib] | -2.67 | 46 | 66 | 58 | -3.49 | 9.51 | -0.435 | -1.52 | 16
2 | CCn1c(=O)c(-c2cc(NC(=O)Nc3ccccc3)c(F)cc2Br)cc2cnc(NC)cc21 [ripretinib] | -5 | -10 | -11 | -12 | -3.71 | -4 | 59 | 1.08 | -16
3 | COc1ccc(CN2C3CC2CN(c2ccc(-c4cc(OCC(C)(C)O)cn5ncc(C#N)c45)cn2)C3)cn1 [selpercatinib] | -10 | 22 | 0.89 | -15 | -1.78 | -2.3 | -0.598 | -1.36 | -5
4 | Cn1cnc2c(F)c(Nc3ccc(Br)cc3Cl)c(C(=O)NOCCO)cc21 [selumetinib] | -2.62 | -2.66 | 1.44 | -55 | -3.2 | 7 | -3 | -0.157 | -28
5 | Cc1cc(Nc2ncnc3ccc(NC4=NC(C)(C)CO4)cc23)ccc1Oc1ccn2ncnc2c1 [tucatinib] | -4 | -4 | -0.285 | -36 | 2 | 5 | -5.68 | -1.68 | -20
6 | C=CC(=O)N1CCC([C@@H]2CCNc3c(C(N)=O)c(-c4ccc(Oc5ccccc5)cc4)nn32)CC1 [zanubrutinib] | 0 | -5.51 | -2.82 | -15 | -3.6 | 7.62 | -1.32 | -10 | -13
